Experimental data reported in PubChem BioAssay AID2305 (GlaxoSmithKline (GSK), 2010).

System: P. falciparum 3D7 growth, pLDH absorbance
Assay: blood-stage malaria parasite growth potency – strain 3D7, dose response (AID 2305)

SMILES	IC50 [nM]
C=CCOC(=O)N1CCC(CNCc2ccc(-c3ccc(-c4nc5ccccc5[nH]4)s3)cc2)C1 (stereo not drawn)	230
CCCN1CCC2(CC1)NC(C(=O)NCCC(C)C)Cc1c2[nH]c2cc(Cl)ccc12 (stereo not drawn)	1380
COc1ccc2c(c1)CC(CNC[C@H](O)c1cccc(Cl)c1)CC2 (stereo partly drawn)	990
COc1cc(Cc2cnc(N)nc2N)cc(OCCNC(=O)OCc2ccccc2)c1OC	920
CCOC(=O)c1c[nH]c2c(ccc3ccccc32)c1=O	160
CC1(C)[C@H]2CC[C@@H](CNc3nc(NCCc4cnc[nH]4)nc(NCc4cc(F)ccc4F)n3)[C@@H]1C2	310
Cc1ccc(N/C(N)=N/c2ncccc2OCc2c(F)cccc2Cl)cc1	1190
Cn1c(-c2ccccc2)cc2c3c(=O)cc(C(F)(F)F)[nH]c3ccc21	850
O=S(=O)(NCCN1CCCC1)c1cccc(-c2cccc(CNCc3ccc(F)cc3)c2)c1	850
COC(=O)c1ccc2nc(-c3cc(-c4cccc(-c5ccccc5)c4)cnc3N)[nH]c2c1	210
COc1ccc(-c2ccc(NC(=O)c3ccc(F)cc3)cc2)cc1CNC(C)C	760
CCOC(=O)c1ccc(NC(=O)NC2CCN(CCCCCNC(=O)/C=C/c3ccc(Cl)c(Cl)c3)C2)cc1 (stereo not drawn)	490
CC(Oc1ccc(C(=O)c2ccc(F)cc2)cc1)C(=O)N1CCc2ccccc21 (stereo not drawn)	410
COc1cc2ncnc(Nc3ccc(OCc4ccccc4Br)c(Cl)c3)c2cc1OC	1280
O=C(Nc1ccc(-c2cccc(-c3nc4ccc(F)cc4[nH]3)c2)cc1)Nc1ccc(Cl)c(Cl)c1	650
Cc1ccc(C(=O)Nc2cccc(CN3CCCN(Cc4ccc(O)cc4)CC3)c2)s1	1000
COc1ccc2c(c1)c(C1CCN(CCCCNC(=O)c3ccc(-c4ccc(C(F)(F)F)cc4)cc3)CC1)cn2C(C)C	730
CCC(=O)Nc1ccc(Nc2nc(C)cc(N3CCCC3)n2)cc1	1320
Nc1nc(N)c2c(ccn2Cc2cc3c(cc2Cl)OCO3)n1	760
CC(C)c1ccc(CN2CCC(CNC(=O)c3cc(-c4ccccc4F)cs3)C2)cc1 (stereo not drawn)	990
CC(=O)c1cc(N2CCOCC2)ccc1N	910
CN(Cc1ccccc1)C1CCN(CCc2c[nH]c3ccc(F)cc23)CC1	600
COc1cc(OC)cc(C(=O)Nc2ccc(Nc3nc(C)cc(N(C)C)n3)cc2)c1	650
Cc1cc(NC2CCCC2)nc(Nc2ccc(F)cc2)n1	470
Cn1cnc2c(SCc3ccc(OCc4ccccc4)cc3)ncnc21	560

SMILES	IC50 [nM]
CC(Cc1ccc(CN2CCN(Cc3ccccc3)CC2)cc1)NCC(O)c1cccc(C(F)(F)F)c1 (stereo not drawn)	890
CCNc1cc(C(=O)N[C@@H](Cc2ccccc2)[C@H](O)CNC(C)(C)CC(C)(C)C)c(F)c(N2CCCCS2(=O)=O)c1	1010
COc1ccc2c(-c3ccccc3)noc2c1	240
C[C@H](NCCC1CCC(NC(=O)N[C@H](C)C(O)(c2ccccc2)c2ccccc2)CC1)c1cccc2ccccc12 (stereo partly drawn)	1100
Cc1ccc2c(NN=CC=Cc3ccccc3)cc(C)nc2c1	1120
CCOc1cc(NCCSCc2nc[nH]c2C)nc2ccccc12	790
CCOC(=O)c1ccc(N(CCCN(CCCN(c2ccc(C(=O)OCC)cc2)S(=O)(=O)c2ccc(C)cc2)CCc2ccc(O)cc2)S(=O)(=O)c2ccc(C)cc2)cc1	1050
Cc1cc(NCCC(=O)Nc2ccccc2)nc(NCCc2cccs2)n1	890
O=C(Nc1ccc(Br)cc1)N(CCN1CCOCC1)CC(O)COCc1ccc(Cl)c(Cl)c1 (stereo not drawn)	930
Oc1cccc(Nc2ccnc3cc(-c4ccccn4)ccc23)c1	740
Fc1ccc2nc(-c3ccc(-c4ccc(CNCCc5ccncc5)cc4)s3)[nH]c2c1	140
O=C(Cn1c(SCc2cccc(F)c2F)cc(=O)c2ccccc21)N(Cc1ccc(-c2ccc(C(F)(F)F)cc2)cc1)C1CCN(CCO)CC1	1250
COC(=O)CN(C(=O)/C=C/c1ccc(Cl)c(Cl)c1)C1CCC(CN2CCC(c3c[nH]c4ccccc34)CC2)CC1 (stereo not drawn)	510
CCCCN(CCCC)CCNC(=O)c1cc(OC(F)(F)F)ccc1O	920
Cc1ccc(NC(=O)c2ccc(CN3CCCN(Cc4cccc(O)c4)CC3)cc2)cc1	740
CCCc1cc(O)c2c3c(c(=O)oc2c1)CN(C)CC3	870
Clc1ccc(OCc2ccccc2)c(-c2nc(-c3nc4ncc(Br)cc4[nH]3)cs2)c1	210
COc1ccc(C)c(Nc2ccnc(Nc3cccc(-c4nc5ccccc5[nH]4)c3)n2)c1	720
CN1CCC(NCc2ccc(-c3ccc(S(=O)(=O)NCc4ccccc4)s3)cc2)CC1	770
COc1ccc(C(=O)[C@H]2C[C@@H]2CN2CC=C(c3c[nH]c4ccc(OC)nc34)CC2)cc1	480
COc1ccc2nccc([C@@H](O)CN3CCC(NC(=O)/C=C/c4ccc5[nH]c(=O)ccc5c4)CC3)c2c1	970
Cc1ccc(CCNCC(O)c2cccc(C(F)(F)F)c2)cc1 (stereo not drawn)	870
COc1ccc(Cl)cc1-c1nc(C(=O)NCCN2CCCCC2)c(C)s1	940
c1ccc(-c2cc(NCCCn3ccnc3)nc(-c3cccnc3)n2)cc1	980
CN(C)c1c(CNCCCCCCNCc2ccc3ccccc3c2N(C)C)ccc2ccccc12	460

SMILES	IC50 [nM]
CCOC(=O)c1[nH]c(-c2ccc(Cl)cc2)nc1NC(=S)NCCCN1CCOCC1	870
CCc1cccc2c(C#N)cn(CC(=O)Nc3ccc(OC)cc3)c12	770
NC(=O)c1ccc(C(=O)Nc2cccc(-c3csc(-c4nc5ccccc5[nH]4)c3)c2)cc1	350
COc1ccc(Br)cc1/C=C/C(=O)Nc1ccc2c(c1)CCCN(C)C2	1560
COc1cc(NC(=O)N2CCc3cc(OC)c(OCCN4CCCCC4)cc32)cc(C(F)(F)F)c1	1150
Cc1cc(C)c2nc(N3CCC(C(=O)NCCCN4CCC(N5CCCCC5)CC4)CC3)sc2c1	840
Cc1ccccc1C(O)CNc1ccnc(Nc2cccc(C#N)c2)n1 (stereo not drawn)	880
CCN(CC)C(=NCCCCCCN=C(NC(N)=NCc1ccc(Cl)cc1Cl)N(CC)CC)NC(N)=NCc1ccc(Cl)cc1Cl	220
CCNC(=O)c1ccc2c(c1)c(C)c(C)n2Cc1ccc(F)cc1	770
CC(=O)Nc1ccc(S(=O)(=O)N2CCN(c3nc(NC4CCCC4)c4ccccc4n3)CC2)cc1	1030
Oc1ccc(-c2cncc(NCc3ccc(F)c(F)c3)c2)cc1	770
O=C(Nc1cccc([N+](=O)[O-])c1)Nc1ccc(Cl)c(C(F)(F)F)c1	1120
CCN1CCC(N(Cc2ccc(-c3ccc(C(F)(F)F)cc3)cc2)C(=O)Cn2c(SCc3cccc(F)c3F)cc(=O)c3ccccc32)C1 (stereo not drawn)	880
COc1ccc(CNC2CCN(C)CC2)cc1-c1ccc(OC)c(S(=O)(=O)NCc2ccccc2)c1	950
Cc1cc(N2CC=CCC2)nc(/N=C(\N)Nc2ccc(Cl)cc2)n1	780
Nc1nc(N)c2c(ccc3nn(C4CCCC4)cc32)n1	290
O=C(Nc1ccc(Cl)cc1)c1ccc(CN2CCCN(Cc3cccc(F)c3)CC2)cc1	1030
Cc1cccc2[nH]c(-c3ccc(-c4ccc(NC(=O)Nc5ccc(Cl)cc5)cc4)s3)nc12	150
CCCCCCN1CCN(Cc2cccc(NC(=O)c3cc4ccccc4s3)c2)CC1	910
Fc1ccccc1C=NNc1ccnc2ccccc12	890
COc1cccc(CNC(=O)NC2CCN(c3ccnc(Nc4ccc(F)cc4)n3)C2)c1 (stereo not drawn)	810
CN(c1ccccc1)c1ccnc(/N=C(\N)Nc2ccc(Cl)cc2)n1	1090
CN1CC=C(c2csc3ccc(NC(=O)Nc4ccc(-c5ccncc5)c(Cl)c4)cc23)CC1	680
